Holding throughout (experiment): relative viability (nuclei count vs DMSO), 5 days (fraction); higher = more cells survive
Compound in the assay “XMD8-85 + Tozasertib”: CN1CCN(CC1)C2=CC(=C(C=C2)NC3=NC=C4C(=N3)N(C5=CC=CC=C5C(=O)N4C)C)OC [XMD8-85] + Cc1cc(Nc2cc(N3CCN(C)CC3)nc(Sc3ccc(NC(=O)C4CC4)cc3)n2)n[nH]1 [Tozasertib] (partner 0.1 µM)
The procedure, abridged:
(§1)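 Each reported value is a median over duplicate plates. It expresses relative viability: treated-well nuclei count divided by vehicle-well nuclei count. Lung cancer cell lines in 1536-well plates were dosed by pin tool a day after seeding, alone with one drug or with a fixed anchor-drug dose plus five library-drug doses (not always all listed) in √10 steps, and nuclei were counted after 5 days.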

Compound in the assay “4EGI-1 + Bortezomib”: O=C(O)C(Cc1ccccc1[N+](=O)[O-])=NNc1nc(-c2ccc(Cl)c(Cl)c2)cs1 (mixture of isomers) [4EGI-1] + CC(C)C[C@H](NC(=O)[C@H](Cc1ccccc1)NC(=O)c1cnccn1)B(O)O [Bortezomib] (partner 0.002 µM)
The procedure, abridged: as §1

Compound in the assay “4EGI-1 + Foretinib”: O=C(O)C(Cc1ccccc1[N+](=O)[O-])=NNc1nc(-c2ccc(Cl)c(Cl)c2)cs1 (mixture of isomers) [4EGI-1] + COc1cc2c(Oc3ccc(NC(=O)C4(C(=O)Nc5ccc(F)cc5)CC4)cc3F)ccnc2cc1OCCCN1CCOCC1 [Foretinib] (partner 0.25 µM)
The essentials: as §1

Compound in the assay “4EGI-1 + Linsitinib”: O=C(O)C(Cc1ccccc1[N+](=O)[O-])=NNc1nc(-c2ccc(Cl)c(Cl)c2)cs1 (mixture of isomers) [4EGI-1] + C[C@]1(O)C[C@@H](c2nc(-c3ccc4ccc(-c5ccccc5)nc4c3)c3c(N)nccn32)C1 [Linsitinib] (partner 1 µM)
The procedure, abridged:
as §1

With NCI-H647, the relative viability is 0.173 with XMD8-85 + Tozasertib (first compound 0.08 µM); 0.195 with XMD8-85 + Tozasertib (first compound 0.253 µM); 0.29 in the assay with XMD8-85 + Tozasertib (first compound 0.8 µM); 0.202 in the assay with XMD8-85 + Tozasertib (first compound 2.53 µM); 0.0891 with XMD8-85 + Tozasertib (first compound 8 µM); 1.08 in the assay with 4EGI-1 + Bortezomib (first compound 0.5 µM). Besides, the relative viability in the assay with 4EGI-1 + Bortezomib (first compound 1.581 µM) is 1.08; with 4EGI-1 + Bortezomib (first compound 5 µM), 1.13; with 4EGI-1 + Bortezomib (first compound 15.81 µM) it was 0.533; in the assay with 4EGI-1 + Bortezomib (first compound 50 µM) it was 0.748; in the assay with 4EGI-1 + Foretinib (first compound 0.5 µM), 1.44; with 4EGI-1 + Foretinib (first compound 5 µM) it was 1.18. Besides, the relative viability with 4EGI-1 + Foretinib (first compound 15.81 µM) amounted to 1.24; with 4EGI-1 + Foretinib (first compound 50 µM), 0.66; with 4EGI-1 + Linsitinib (first compound 0.5 µM) it was 1.17; with 4EGI-1 + Linsitinib (first compound 1.581 µM), 1.12; with 4EGI-1 + Linsitinib (first compound 5 µM), 1.22; in the assay with 4EGI-1 + Linsitinib (first compound 15.81 µM) it was 1.07. In the assay with 4EGI-1 + Linsitinib (first compound 50 µM), the relative viability came to 0.202.

NCI-H727: the relative viability with XMD8-85 + Tozasertib (first compound 0.08 µM) turned out to be 0.55; with XMD8-85 + Tozasertib (first compound 0.253 µM), 0.588; in the assay with XMD8-85 + Tozasertib (first compound 0.8 µM), 0.6; in the assay with XMD8-85 + Tozasertib (first compound 2.53 µM), 0.458; in the assay with XMD8-85 + Tozasertib (first compound 8 µM), 0.47; with 4EGI-1 + Bortezomib (first compound 0.5 µM), 0.985. The relative viability with 4EGI-1 + Bortezomib (first compound 1.581 µM) came to 0.874; with 4EGI-1 + Bortezomib (first compound 5 µM), 0.652; with 4EGI-1 + Bortezomib (first compound 15.81 µM) it was 0.722; with 4EGI-1 + Bortezomib (first compound 50 µM), 0.442; in the assay with 4EGI-1 + Foretinib (first compound 0.5 µM), 1.07; with 4EGI-1 + Foretinib (first compound 1.581 µM) it was 1.07. In addition, the relative viability in the assay with 4EGI-1 + Foretinib (first compound 5 µM) worked out at 0.767; with 4EGI-1 + Foretinib (first compound 15.81 µM), 1.19; with 4EGI-1 + Foretinib (first compound 50 µM), 0.324; with 4EGI-1 + Linsitinib (first compound 0.5 µM), 0.337; in the assay with 4EGI-1 + Linsitinib (first compound 1.581 µM), 0.286; with 4EGI-1 + Linsitinib (first compound 5 µM), 0.268. The relative viability with 4EGI-1 + Linsitinib (first compound 15.81 µM) is 0.229; with 4EGI-1 + Linsitinib (first compound 50 µM), 0.301.

Regarding COR-L23, the relative viability with XMD8-85 + Tozasertib (first compound 0.08 µM) stood at 0.222; with XMD8-85 + Tozasertib (first compound 0.253 µM) it was 0.216; with XMD8-85 + Tozasertib (first compound 0.8 µM), 0.197; in the assay with XMD8-85 + Tozasertib (first compound 2.53 µM), 0.163; with XMD8-85 + Tozasertib (first compound 8 µM) it was 0.144; in the assay with 4EGI-1 + Bortezomib (first compound 0.5 µM), 0.983. Besides, the relative viability with 4EGI-1 + Bortezomib (first compound 1.581 µM) turned out to be 0.651; with 4EGI-1 + Bortezomib (first compound 5 µM), 1.09; in the assay with 4EGI-1 + Bortezomib (first compound 15.81 µM), 0.808; with 4EGI-1 + Bortezomib (first compound 50 µM), 0.19; in the assay with 4EGI-1 + Foretinib (first compound 0.5 µM), 1.08; with 4EGI-1 + Foretinib (first compound 1.581 µM) it was 0.728. The relative viability was 0.98 in the assay with 4EGI-1 + Foretinib (first compound 5 µM); 0.736 with 4EGI-1 + Foretinib (first compound 15.81 µM); 0.29 with 4EGI-1 + Foretinib (first compound 50 µM); 1.05 with 4EGI-1 + Linsitinib (first compound 0.5 µM); 0.814 with 4EGI-1 + Linsitinib (first compound 1.581 µM); 0.918 in the assay with 4EGI-1 + Linsitinib (first compound 5 µM). In addition, the relative viability was 0.492 with 4EGI-1 + Linsitinib (first compound 15.81 µM) and 0.162 with 4EGI-1 + Linsitinib (first compound 50 µM).

As for NCI-H1915, the relative viability with XMD8-85 + Tozasertib (first compound 0.08 µM) was 0.434; with XMD8-85 + Tozasertib (first compound 0.253 µM), 0.404; with XMD8-85 + Tozasertib (first compound 0.8 µM), 0.494; with XMD8-85 + Tozasertib (first compound 2.53 µM) it was 0.389; in the assay with XMD8-85 + Tozasertib (first compound 8 µM), 0.296; with 4EGI-1 + Bortezomib (first compound 0.5 µM), 1. In addition, the relative viability with 4EGI-1 + Bortezomib (first compound 1.581 µM) came out at 0.693; with 4EGI-1 + Bortezomib (first compound 5 µM), 1.09; with 4EGI-1 + Bortezomib (first compound 15.81 µM) it was 1.01; in the assay with 4EGI-1 + Bortezomib (first compound 50 µM), 0.687; with 4EGI-1 + Foretinib (first compound 0.5 µM), 1.13; with 4EGI-1 + Foretinib (first compound 1.581 µM) it was 0.858. In addition, the relative viability amounted to 1.08 with 4EGI-1 + Foretinib (first compound 5 µM); 1.07 with 4EGI-1 + Foretinib (first compound 15.81 µM); 0.928 with 4EGI-1 + Foretinib (first compound 50 µM); 1.12 with 4EGI-1 + Linsitinib (first compound 0.5 µM); 0.779 with 4EGI-1 + Linsitinib (first compound 1.581 µM); 1.06 with 4EGI-1 + Linsitinib (first compound 5 µM). In addition, the relative viability with 4EGI-1 + Linsitinib (first compound 15.81 µM) is 1.07; in the assay with 4EGI-1 + Linsitinib (first compound 50 µM), 0.861.

In the case of NCI-H2126, the relative viability with XMD8-85 + Tozasertib (first compound 0.08 µM) worked out at 0.831; in the assay with XMD8-85 + Tozasertib (first compound 0.253 µM), 0.843; with XMD8-85 + Tozasertib (first compound 0.8 µM) it was 0.901; with XMD8-85 + Tozasertib (first compound 2.53 µM), 0.735; with XMD8-85 + Tozasertib (first compound 8 µM), 0.533; with 4EGI-1 + Bortezomib (first compound 0.5 µM) it was 1.13. In addition, the relative viability with 4EGI-1 + Bortezomib (first compound 1.581 µM) was determined as 1.04; with 4EGI-1 + Bortezomib (first compound 5 µM) it was 1.07; with 4EGI-1 + Bortezomib (first compound 15.81 µM), 1; with 4EGI-1 + Bortezomib (first compound 50 µM), 1.11; in the assay with 4EGI-1 + Foretinib (first compound 0.5 µM) it was 1.34; in the assay with 4EGI-1 + Foretinib (first compound 1.581 µM), 1.55. For the same cell line, the relative viability amounted to 1.28 with 4EGI-1 + Foretinib (first compound 5 µM); 1.07 with 4EGI-1 + Foretinib (first compound 15.81 µM); 0.785 with 4EGI-1 + Foretinib (first compound 50 µM); 0.734 in the assay with 4EGI-1 + Linsitinib (first compound 0.5 µM); 0.693 with 4EGI-1 + Linsitinib (first compound 1.581 µM); 0.717 with 4EGI-1 + Linsitinib (first compound 5 µM). Further, the relative viability in the assay with 4EGI-1 + Linsitinib (first compound 15.81 µM) stood at 0.652; in the assay with 4EGI-1 + Linsitinib (first compound 50 µM), 0.673.

As for NCI-H2087, the relative viability in the assay with XMD8-85 + Tozasertib (first compound 0.08 µM) was 0.265; with XMD8-85 + Tozasertib (first compound 0.253 µM), 0.223; in the assay with XMD8-85 + Tozasertib (first compound 0.8 µM) it was 0.238; with XMD8-85 + Tozasertib (first compound 2.53 µM) it was 0.245; with XMD8-85 + Tozasertib (first compound 8 µM), 0.177; with 4EGI-1 + Bortezomib (first compound 0.5 µM), 1.04. For the same cell line, the relative viability with 4EGI-1 + Bortezomib (first compound 1.581 µM) is 0.782; with 4EGI-1 + Bortezomib (first compound 5 µM), 0.882; in the assay with 4EGI-1 + Bortezomib (first compound 15.81 µM), 0.726; with 4EGI-1 + Bortezomib (first compound 50 µM), 0.335; in the assay with 4EGI-1 + Foretinib (first compound 0.5 µM) it was 1.23; with 4EGI-1 + Foretinib (first compound 1.581 µM), 1.09. The relative viability with 4EGI-1 + Foretinib (first compound 5 µM) came out at 1.39; in the assay with 4EGI-1 + Foretinib (first compound 15.81 µM), 0.855; with 4EGI-1 + Foretinib (first compound 50 µM), 0.29; with 4EGI-1 + Linsitinib (first compound 0.5 µM), 0.983; with 4EGI-1 + Linsitinib (first compound 1.581 µM), 0.983; in the assay with 4EGI-1 + Linsitinib (first compound 5 µM), 1. Besides, the figures for the relative viability with 4EGI-1 + Linsitinib (first compound 15.81 µM) and in the assay with 4EGI-1 + Linsitinib (first compound 50 µM) were 0.66 and 0.307, respectively.

With LC-2-ad, the relative viability amounted to 0.411 with XMD8-85 + Tozasertib (first compound 0.08 µM); 0.429 in the assay with XMD8-85 + Tozasertib (first compound 0.253 µM); 0.47 with XMD8-85 + Tozasertib (first compound 0.8 µM); 0.33 with XMD8-85 + Tozasertib (first compound 2.53 µM); 0.34 in the assay with XMD8-85 + Tozasertib (first compound 8 µM); 1.17 with 4EGI-1 + Bortezomib (first compound 0.5 µM). Moreover, the relative viability with 4EGI-1 + Bortezomib (first compound 1.581 µM) is 0.877; in the assay with 4EGI-1 + Bortezomib (first compound 5 µM), 0.944; with 4EGI-1 + Bortezomib (first compound 15.81 µM), 0.444; with 4EGI-1 + Bortezomib (first compound 50 µM), 0.352; with 4EGI-1 + Foretinib (first compound 0.5 µM) it was 0.997; with 4EGI-1 + Foretinib (first compound 5 µM), 1.02. The relative viability with 4EGI-1 + Foretinib (first compound 15.81 µM) is 0.485; with 4EGI-1 + Foretinib (first compound 50 µM) it was 0.283; with 4EGI-1 + Linsitinib (first compound 0.5 µM), 0.897; with 4EGI-1 + Linsitinib (first compound 1.581 µM), 0.764; in the assay with 4EGI-1 + Linsitinib (first compound 5 µM) it was 0.83; with 4EGI-1 + Linsitinib (first compound 15.81 µM), 0.432. Besides, the relative viability in the assay with 4EGI-1 + Linsitinib (first compound 50 µM) amounted to 0.13.

For the origin of these results see the supplement of paper PMC10307832.
